According to ChEMBL document CHEMBL1201862, “PubChem BioAssay data set” (2004):
The source made the active and inactive calls.

How the values were obtained:
[1] = target: T1, Type-1 angiotensin II receptor (Homo sapiens, UniProt P30556); assay: AT1 receptor agonists, dose response, selectivity assay for APJ receptor agonist project, cell-based, uHTS hits (AID 488865); type: functional;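 also: beta-arrestin recruitment to AT1 measured by enzyme fragment complementation luminescence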
T1 sequence (P30556 whole entry): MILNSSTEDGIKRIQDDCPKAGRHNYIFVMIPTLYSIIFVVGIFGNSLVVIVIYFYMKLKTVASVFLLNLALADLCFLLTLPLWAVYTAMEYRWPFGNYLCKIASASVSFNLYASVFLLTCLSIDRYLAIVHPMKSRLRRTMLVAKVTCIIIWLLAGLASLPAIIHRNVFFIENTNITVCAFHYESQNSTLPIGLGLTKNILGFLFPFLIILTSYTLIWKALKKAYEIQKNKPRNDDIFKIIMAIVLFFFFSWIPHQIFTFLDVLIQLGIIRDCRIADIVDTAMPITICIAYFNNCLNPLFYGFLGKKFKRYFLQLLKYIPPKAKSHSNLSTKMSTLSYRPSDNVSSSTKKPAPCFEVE

[2] = target: T2, Polyadenylate-binding protein 1 (Homo sapiens, UniProt P11940); assay: PABP1 MLLE–PAM2 binding inhibitor potency, dose response, biochemical, fluorescence polarization, FITC-PAM2 peptide (AID 602259); type: functional; details: read-out: IC50_Mean
[3] = target: Eukaryotic translation initiation factor 4E (Mus musculus, UniProt P63073); assay: eIF4E–eIF4G protein interaction inhibitors, dose response, biochemical, TR-FRET (AID 855); type: functional;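 also: potency for disrupting eIF4E binding to eIF4GI seen as loss of FRET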
[4] = target: T2, Polyadenylate-binding protein 1; assay: PABP1 MLLE–PAM2 interaction inhibitors, dose response, miRNA deadenylation inhibitor project, biochemical, fluorescence polarization, Cy5-PAM2 peptide, secondary (AID 602260); type: functional; details: read-out: IC50_Mean
Hexokinase-1 = target: T3, Hexokinase-1 (Homo sapiens, UniProt P19367); assay: hexokinase 1 activators, dose response, selectivity assay for HKDC1 activator project, biochemical (AID 504762); type: functional
T3 sequence (P19367 whole entry): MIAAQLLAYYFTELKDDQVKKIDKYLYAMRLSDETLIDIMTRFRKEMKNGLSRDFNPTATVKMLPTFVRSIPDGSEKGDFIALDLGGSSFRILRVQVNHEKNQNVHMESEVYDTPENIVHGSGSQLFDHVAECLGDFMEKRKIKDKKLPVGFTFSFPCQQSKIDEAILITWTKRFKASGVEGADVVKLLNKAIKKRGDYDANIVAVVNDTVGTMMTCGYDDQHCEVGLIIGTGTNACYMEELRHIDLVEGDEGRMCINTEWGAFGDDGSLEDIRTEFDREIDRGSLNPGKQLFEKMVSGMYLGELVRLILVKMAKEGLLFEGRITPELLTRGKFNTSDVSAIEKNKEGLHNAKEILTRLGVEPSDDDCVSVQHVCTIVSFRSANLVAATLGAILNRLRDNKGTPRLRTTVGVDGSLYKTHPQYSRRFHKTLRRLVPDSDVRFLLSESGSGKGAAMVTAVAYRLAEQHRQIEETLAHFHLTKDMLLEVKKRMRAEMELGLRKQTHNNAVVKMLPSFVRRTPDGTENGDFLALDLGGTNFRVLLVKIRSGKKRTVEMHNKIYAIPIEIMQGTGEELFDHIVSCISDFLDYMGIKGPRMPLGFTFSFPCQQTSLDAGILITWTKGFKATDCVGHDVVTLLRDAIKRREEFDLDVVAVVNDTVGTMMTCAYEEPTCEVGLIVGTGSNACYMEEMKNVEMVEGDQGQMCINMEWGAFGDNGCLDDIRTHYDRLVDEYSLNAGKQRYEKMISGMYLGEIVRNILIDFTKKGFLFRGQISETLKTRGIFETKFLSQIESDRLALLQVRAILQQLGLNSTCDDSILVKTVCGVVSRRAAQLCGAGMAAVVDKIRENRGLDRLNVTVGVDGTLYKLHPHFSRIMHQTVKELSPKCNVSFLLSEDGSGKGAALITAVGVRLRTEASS

[5] = target: DNA dC->dU-editing enzyme APOBEC-3G (Homo sapiens, UniProt Q9HC16); assay: Dose Response confirmation of small molecule APOBEC3G DNA Deaminase Inhibitors via a fluorescence-based single-stranded DNA deaminase assay. [Related pubchem assays (depositor defined):AID493012, AID493028]; type: functional
Hexokinase HKDC1 = target: T4, Hexokinase HKDC1 (Homo sapiens, UniProt Q2TB90); assay: HKDC1 hexokinase activators, dose response, biochemical, W721R variant (AID 504730); type: functional
T4 sequence (Q2TB90 whole entry): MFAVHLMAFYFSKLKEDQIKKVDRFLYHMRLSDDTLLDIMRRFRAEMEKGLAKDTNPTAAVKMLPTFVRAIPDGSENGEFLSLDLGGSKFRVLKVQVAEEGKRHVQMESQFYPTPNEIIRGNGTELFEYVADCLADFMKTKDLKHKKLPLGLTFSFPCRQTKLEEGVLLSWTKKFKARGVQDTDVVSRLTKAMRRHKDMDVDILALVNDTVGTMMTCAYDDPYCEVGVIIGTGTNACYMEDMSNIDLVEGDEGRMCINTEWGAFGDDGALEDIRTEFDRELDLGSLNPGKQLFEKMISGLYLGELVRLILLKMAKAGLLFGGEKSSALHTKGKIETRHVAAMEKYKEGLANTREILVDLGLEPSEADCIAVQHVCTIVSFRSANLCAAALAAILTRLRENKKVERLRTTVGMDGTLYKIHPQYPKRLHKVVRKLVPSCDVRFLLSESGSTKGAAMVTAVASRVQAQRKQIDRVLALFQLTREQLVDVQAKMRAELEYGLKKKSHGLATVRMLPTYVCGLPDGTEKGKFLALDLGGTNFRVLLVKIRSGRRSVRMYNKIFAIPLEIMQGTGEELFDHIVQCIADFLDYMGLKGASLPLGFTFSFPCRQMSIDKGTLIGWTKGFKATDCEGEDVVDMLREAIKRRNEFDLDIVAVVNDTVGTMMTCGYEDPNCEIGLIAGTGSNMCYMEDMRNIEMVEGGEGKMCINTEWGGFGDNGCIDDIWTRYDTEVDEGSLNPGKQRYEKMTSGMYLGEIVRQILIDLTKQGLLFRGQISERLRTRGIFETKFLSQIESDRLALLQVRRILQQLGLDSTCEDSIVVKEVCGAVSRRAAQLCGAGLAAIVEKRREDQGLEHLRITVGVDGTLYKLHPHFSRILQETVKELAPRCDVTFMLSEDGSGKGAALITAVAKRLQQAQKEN

[6] = target: T5, Aryl hydrocarbon receptor (Homo sapiens, UniProt P35869); assay: Luminescence-based cell-based high throughput dose response assay for activators of the Aryl Hydrocarbon Receptor (AHR). [Related pubchem assays: 2796 (Primary screen (AHR activators in singlicate)), 2845 (Confirmation screen (AHR activators in triplicate)), 434939 (Counterscreen (PXR activators in triplicate)), 2804 (Summary (AHR activators))]; type: ADME
T5 sequence (P35869 whole entry): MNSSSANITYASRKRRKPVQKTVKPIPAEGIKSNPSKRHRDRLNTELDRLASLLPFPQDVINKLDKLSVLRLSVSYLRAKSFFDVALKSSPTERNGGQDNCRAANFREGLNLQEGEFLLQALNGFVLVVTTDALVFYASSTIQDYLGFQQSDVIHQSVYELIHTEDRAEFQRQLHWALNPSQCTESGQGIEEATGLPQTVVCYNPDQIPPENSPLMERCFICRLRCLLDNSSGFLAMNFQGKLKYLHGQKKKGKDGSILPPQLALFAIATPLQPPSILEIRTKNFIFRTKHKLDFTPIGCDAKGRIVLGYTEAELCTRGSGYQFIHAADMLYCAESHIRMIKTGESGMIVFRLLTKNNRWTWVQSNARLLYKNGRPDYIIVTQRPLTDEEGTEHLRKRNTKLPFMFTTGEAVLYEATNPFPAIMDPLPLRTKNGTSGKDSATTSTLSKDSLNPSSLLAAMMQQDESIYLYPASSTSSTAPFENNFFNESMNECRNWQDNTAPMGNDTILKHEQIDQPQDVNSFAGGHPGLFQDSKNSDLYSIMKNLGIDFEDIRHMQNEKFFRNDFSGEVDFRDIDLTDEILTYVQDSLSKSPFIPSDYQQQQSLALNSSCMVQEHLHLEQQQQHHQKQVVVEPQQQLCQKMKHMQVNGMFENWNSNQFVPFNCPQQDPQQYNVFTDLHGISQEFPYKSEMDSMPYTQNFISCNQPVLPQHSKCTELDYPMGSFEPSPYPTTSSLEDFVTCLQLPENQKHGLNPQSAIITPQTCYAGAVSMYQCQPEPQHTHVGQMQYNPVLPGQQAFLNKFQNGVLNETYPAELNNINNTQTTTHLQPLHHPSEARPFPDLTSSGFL

[7] = target: T6, Runt-related transcription factor 1/Core-binding factor subunit beta (Homo sapiens, UniProt Q01196+Q13951); assay: inhibitors of RUNX1 Runt–CBFb-SMMHC binding, primary screen, biochemical, FRET, Cerulean-Runt, Venus-CBFb-SMMHC, uHTS (AID 1434); type: protein assay;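 also: partner is the CBFb-SMMHC leukemia fusion protein rather than wild-type CBFb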
[8] = target: T6, Runt-related transcription factor 1/Core-binding factor subunit beta; assay: inhibitors of RUNX1 Runt–CBFb-SMMHC binding, biochemical, TR-FRET (AID 1438); type: protein assay
[9] = target: T7, DNA repair and recombination protein RAD54-like (Homo sapiens, UniProt Q92698); assay: inhibitors of human RAD54 branch migration, confirmation, biochemical, fluorescence, cherry-picked samples, dose series (AID 651657); type: functional
T7 sequence (Q92698 whole entry): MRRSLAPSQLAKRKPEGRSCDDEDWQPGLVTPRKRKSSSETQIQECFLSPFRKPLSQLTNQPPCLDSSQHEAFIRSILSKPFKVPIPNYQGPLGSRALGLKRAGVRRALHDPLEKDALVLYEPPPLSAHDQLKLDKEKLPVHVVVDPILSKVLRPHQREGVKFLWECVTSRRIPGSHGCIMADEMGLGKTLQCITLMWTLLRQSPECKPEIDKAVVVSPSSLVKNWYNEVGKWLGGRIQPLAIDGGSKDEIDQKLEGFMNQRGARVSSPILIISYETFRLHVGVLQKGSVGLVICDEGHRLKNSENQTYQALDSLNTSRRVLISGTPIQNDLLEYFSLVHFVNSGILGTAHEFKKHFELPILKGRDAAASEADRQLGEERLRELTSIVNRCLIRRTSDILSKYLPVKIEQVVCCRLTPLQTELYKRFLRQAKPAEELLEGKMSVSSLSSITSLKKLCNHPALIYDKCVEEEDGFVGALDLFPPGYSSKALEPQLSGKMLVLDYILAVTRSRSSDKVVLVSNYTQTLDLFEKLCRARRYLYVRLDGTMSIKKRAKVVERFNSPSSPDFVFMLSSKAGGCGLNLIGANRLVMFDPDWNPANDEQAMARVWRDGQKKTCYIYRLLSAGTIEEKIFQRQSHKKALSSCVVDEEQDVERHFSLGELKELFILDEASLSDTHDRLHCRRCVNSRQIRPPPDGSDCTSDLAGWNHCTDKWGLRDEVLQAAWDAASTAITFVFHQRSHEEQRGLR

Troponin, cardiac muscle = Troponin, cardiac muscle (Homo sapiens, UniProt P19429+P45379+P63316); assay: Fluorescence-based biochemical high throughput dose response assay for activators of the calcium sensitivity of cardiac Regulated Thin Filaments (RTF). [Related pubchem assays (depositor defined):AID493008, AID493018, AID504382, AID504383]; type: protein-complex assay
[10] = target: DNA damage-inducible transcript 3 protein (Mus musculus, UniProt P35639); type: functional, Cricetulus griseus

CCCSc1nc(O)c(CC)c(=O)n1C(C)CC (stereo not drawn)
EC50 [1]: > 100 µM (inactive)

CCOC(=O)c1c(NC(=O)CSc2nnnn2-c2ccc(OC)cc2)sc(C)c1C
IC50 [2]: > 66 µM (inactive)
IC50 [3]: > 64 µM (inactive)
IC50 [4]: > 66 µM (inactive)
EC50 (Hexokinase-1): 37.4 µM (inactive)
IC50 [5]: 54.7 µM (active)
EC50 (Hexokinase HKDC1): > 80 µM (inactive)

CC(=O)Nc1ccc2cc3ccc(NC(C)=O)cc3nc2c1
EC50 [6]: > 3.39 µM (active)
IC50 [7]: 14.1 µM (active)
IC50 [8]: > 100 µM (inactive)
AC50 [9]: 86.2 µM (active)
EC50 (Troponin, cardiac muscle): 38.3 µM (inactive)

C/C(=N\NC(=O)c1nn(C)c(C)c1Br)c1ccc(NC(=O)c2ccoc2C)cc1
Absolute IC50 (CHOP) [10]: 10 µM
